8 compounds from patent US5591741A, “Fungicidal spiroheterocyclic derivatives” (American Cyanamid Company, priority 1993, dated 1997) can be followed below.

Each structure is given as a SMILES string.

For assay [1], the system named is Pyricularia oryzae. It is filed as in vivo. As to conditions: rice seedlings, direct therapeutic foliar spray, 600 ppm, 4-5 days.
The subject of assay [2] is Rhizoctonia solani. Put plainly: Activity against Rhizoctonia in-vitro (RSI). Type of assay: cell-based. Conditions: 10 ppm, 10 days, 20° C., mycelial growth. An outline of the steps: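 R. solani mycelial fragments (5×10^4/ml) in half-strength Potato Dextrose Broth with compound added from acetone to 10 ppm final. Mycelial growth assessed after 10 days at 20° C, rated against untreated or diluent control.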

The test system of assay [3] is Botrytis cinerea. Put plainly: Direct protectant activity against broad bean grey mould (BCB). Type of assay: in vivo. As to conditions: direct protectant foliar spray, 600 ppm, 4 days. An outline of the steps: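 Broad bean plants (cv The Sutton, two leaf pairs) sprayed on upper leaf surfaces at 600 ppm, then inoculated 24 h later with 10^6 conidia/ml. Kept 4 days at 22 °C, high humidity; disease control rated from % leaf area with lesions against untreated or diluent controls.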

Assay [4] relates to Leptosphaeria nodorum. Put plainly: Activity against wheat leafspot (LN). Type of assay: in vivo. Conditions: direct therapeutic foliar spray, 600 ppm, 6-8 days. In outline:
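Wheat cv Norman at single-leaf stage spray-inoculated with 1.5×10^6 conidia/ml, held 24 h at high humidity, then sprayed therapeutically with test compound at 600 ppm. Kept 6-8 days at 22° C, 70% humidity; lesion density per leaf rated against untreated or diluent-sprayed controls.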

The test system of assay [5] is Alternaria solani. Put plainly: Activity against tomato early blight (AS). Type of assay: in vivo. Conditions: Table VI; tomato seedlings, contact prophylactic foliar spray, 4 days. In outline:
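Foliar contact prophylactic spray on tomato seedlings (cv Outdoor Girl, second true leaf expanded) in acetone/water 50:50 with 0.04% Tween 20; 24 h at 20° C, 40% R.H., then inoculation with 10^4 spores/ml A. solani conidia. Kept moist at 21° C; lesion cover rated 4 days post-inoculation against untreated or diluent-sprayed controls.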

Assay [6] deals with Venturia inaequalis. Put plainly: Activity against apple scab in-vitro (VII). It is filed as cell-based. Conditions: 10 ppm, 10 days, 20° C., mycelial growth. An outline of the steps:
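Compound in acetone was tested at 10 ppm final in half-strength Potato Dextrose Broth inoculated with V. inaequalis mycelial fragments and spores at 5×10^4 propagules/ml. After 10 days at 20° C, mycelial growth was rated against untreated or diluent controls.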

For assay [7], the system named is Erysiphe graminis f.sp. hordei. Put plainly: Direct protectant activity against barley powdery mildew (EGP). It is filed as in vivo. Conditions: direct protectant foliar spray, 8 days. An outline of the steps:
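Barley seedlings (cv Golden Promise, single-leaf stage) were foliar-sprayed, held 24 h at 18 °C/40% RH, then dusted with mildew conidia. After 8 days at 18 °C/40% RH, sporulating leaf area was scored as a rating against untreated or diluent-sprayed controls.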

Assay [8] relates to Phytophthora infestans. It is filed as in vivo. As to conditions: tomato, direct protectant foliar spray.
In assay [9] the test system is Pseudocercosporella herpotrichoides. Put plainly: Activity against wheat eyespot in-vitro (PHI). It is filed as cell-based. As to conditions: 10 ppm, 10 days, 20° C., mycelial growth. An outline of the steps: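 P. herpotrichoides mycelial fragments (5×10^4/ml) grown in half-strength PDB with compound at 10 ppm final, added from acetone. Incubated 10 days at 20 °C; mycelial growth rated against untreated or diluent controls.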

The test system of assay [10] is Erysiphe graminis f.sp. hordei. Put plainly: Activity against barley powdery mildew, direct therapeutic (EGT). It is filed as in vivo. As to conditions: direct therapeutic foliar spray, 600 ppm, up to 7 days. In outline:
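Barley seedlings (cv. Golden Promise, single-leaf stage) were dusted with mildew conidia one day before a therapeutic foliar spray of 600 ppm compound. Plants were kept at 18 °C and 40% humidity for up to 7 days, and sporulating leaf area was rated against untreated or diluent-sprayed controls.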

Assay [11] relates to Plasmopara viticola. Put plainly: Antisporulant activity against vine downy mildew (PVA). Type of assay: in vivo. As to conditions: vine leaves, antisporulant foliar spray, 600 ppm, 750 l/ha. An outline of the steps:
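Cabernet Sauvignon vines (~8 cm) inoculated on lower leaf surfaces with 5×10^4 zoosporangia/ml, held 24 h at 21° C high humidity then 24 h glasshouse. Infected leaves sprayed underside with 600 ppm compound in 1:1 water/acetone, 0.04% Tween 20, 750 l/ha; 96 h glasshouse, 24 h humidity. Sporulating leaf area rated versus control.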

Take `CCCCCCNC1COC2(CCC(C(C)(C)C)CC2)C1` (stereo not shown) [Compound 27]: in [1], the “disease control rating PO” value is listed as 0 (less than 50% disease control). Further, the “disease control rating RSI” value in [2] is 0 (less than 50% disease control). In assay [3], the “disease control rating BCB” value is recorded as 0 (less than 50% disease control). Moreover, the “disease control rating LN” value in assay [4] is recorded as 0 (less than 50% disease control). Also, the “disease control rating AS” value in [5] is 0 (less than 50% disease control). Besides, the “disease control rating VII” value in [6] was 1 (about 50-80% disease control). Moreover, in assay [7], the “disease control rating EGP” value is given as 2 (greater than 80% disease control). In addition, in [8], the “disease control rating PIP” value is recorded as 0 (less than 50% disease control). Besides, the “disease control rating PHI” value in assay [9] is given as 1 (about 50-80% disease control). Moreover, in assay [10], the “disease control rating EGT” value is 2 (greater than 80% disease control). Besides, the “disease control rating PVA” value in assay [11] is reported as 0 (less than 50% disease control).
In the case of `Cc1ccc(CNC2COC3(CCC(C(C)(C)C)CC3)C2)cc1` (stereo not shown) [Compound 28], the “disease control rating PO” value in assay [1] is on record as 0 (less than 50% disease control). In addition, the “disease control rating RSI” value in [2] was 0 (less than 50% disease control). For the same compound, in assay [3], the “disease control rating BCB” value was 0 (less than 50% disease control). For the same compound, the “disease control rating LN” value in assay [4] is 0 (less than 50% disease control). Besides, in [5], the “disease control rating AS” value was 0 (less than 50% disease control). Further, in assay [6], the “disease control rating VII” value is listed as 2 (greater than 80% disease control). Besides, the “disease control rating EGP” value in assay [7] is given as 2 (greater than 80% disease control). Further, the “disease control rating PIP” value in assay [8] is recorded as 0 (less than 50% disease control). Further, in assay [9], the “disease control rating PHI” value is 0 (less than 50% disease control). The “disease control rating EGT” value in [10] is 2 (greater than 80% disease control). For the same compound, the “disease control rating PVA” value in assay [11] is on record as 0 (less than 50% disease control).
For the compound `CC(C)(C)C1CCC2(CC1)CC(NCc1ccc(Br)cc1)CO2` (stereo not shown) [Compound 29], the “disease control rating PO” value in [1] is recorded as 0 (less than 50% disease control). Moreover, in [2], the “disease control rating RSI” value was 0 (less than 50% disease control). Also, in assay [3], the “disease control rating BCB” value is 0 (less than 50% disease control). In addition, the “disease control rating LN” value in assay [4] is given as 0 (less than 50% disease control). For the same compound, the “disease control rating AS” value in assay [5] is listed as 0 (less than 50% disease control). Also, in assay [6], the “disease control rating VII” value is 2 (greater than 80% disease control). For the same compound, in assay [7], the “disease control rating EGP” value was 2 (greater than 80% disease control). The “disease control rating PIP” value in assay [8] is listed as 0 (less than 50% disease control). In [9], the “disease control rating PHI” value is given as 0 (less than 50% disease control). For the same compound, in assay [10], the “disease control rating EGT” value is 2 (greater than 80% disease control). Besides, the “disease control rating PVA” value in assay [11] is given as 0 (less than 50% disease control).
For `CC(C)(C)C1CCC2(CC1)CC(NCc1ccc(F)cc1)CO2` (stereo not shown) [Compound 30], the “disease control rating PO” value in assay [1] is reported as 0 (less than 50% disease control). In addition, in [2], the “disease control rating RSI” value is recorded as 0 (less than 50% disease control). Also, in assay [3], the “disease control rating BCB” value is reported as 0 (less than 50% disease control). Also, the “disease control rating LN” value in assay [4] is 0 (less than 50% disease control). Also, in assay [5], the “disease control rating AS” value was 0 (less than 50% disease control). For the same compound, the “disease control rating VII” value in [6] is listed as 2 (greater than 80% disease control). In [7], the “disease control rating EGP” value is reported as 2 (greater than 80% disease control). Moreover, in assay [8], the “disease control rating PIP” value is 0 (less than 50% disease control). For the same compound, the “disease control rating PHI” value in [9] is 0 (less than 50% disease control). Besides, in assay [10], the “disease control rating EGT” value is 2 (greater than 80% disease control). Besides, in [11], the “disease control rating PVA” value is given as 0 (less than 50% disease control).
`CC(C)(C)C1CCC2(CC1)CC(NCc1ccccc1)CO2` (stereo not shown) [Compound 31]: in assay [1], the “disease control rating PO” value is given as 0 (less than 50% disease control). Also, in [2], the “disease control rating RSI” value is recorded as 0 (less than 50% disease control). The “disease control rating BCB” value in assay [3] is recorded as 0 (less than 50% disease control). For the same compound, the “disease control rating LN” value in assay [4] is 0 (less than 50% disease control). Besides, in assay [5], the “disease control rating AS” value is recorded as 1 (about 50-80% disease control). For the same compound, the “disease control rating VII” value in assay [6] is listed as 1 (about 50-80% disease control). In addition, the “disease control rating EGP” value in assay [7] is recorded as 2 (greater than 80% disease control). Moreover, the “disease control rating PIP” value in assay [8] is 0 (less than 50% disease control). The “disease control rating PHI” value in [9] is 0 (less than 50% disease control). In addition, the “disease control rating EGT” value in assay [10] is on record as 2 (greater than 80% disease control). In addition, in assay [11], the “disease control rating PVA” value is on record as 2 (greater than 80% disease control).
As for `CCCCCCNC1COC2(CCCCC2)C1` (stereo not shown) [Compound 32], the “disease control rating PO” value in assay [1] was 0 (less than 50% disease control). Also, the “disease control rating RSI” value in [2] is recorded as 0 (less than 50% disease control). In assay [3], the “disease control rating BCB” value is listed as 0 (less than 50% disease control). Besides, in assay [4], the “disease control rating LN” value was 0 (less than 50% disease control). The “disease control rating AS” value in assay [5] is listed as 0 (less than 50% disease control). For the same compound, the “disease control rating VII” value in assay [6] is given as 0 (less than 50% disease control). Besides, the “disease control rating EGP” value in [7] is reported as 2 (greater than 80% disease control). Moreover, the “disease control rating PIP” value in [8] is reported as 0 (less than 50% disease control). The “disease control rating PHI” value in [9] is on record as 0 (less than 50% disease control). Further, in [10], the “disease control rating EGT” value was 2 (greater than 80% disease control). For the same compound, the “disease control rating PVA” value in assay [11] is recorded as 0 (less than 50% disease control).
On to `c1ccc(CNC2COC3(CCCCC3)C2)cc1` (stereo not shown) [Compound 33], for which the “disease control rating PO” value in assay [1] is on record as 0 (less than 50% disease control). In addition, the “disease control rating RSI” value in assay [2] is given as 0 (less than 50% disease control). The “disease control rating BCB” value in assay [3] is reported as 0 (less than 50% disease control). The “disease control rating LN” value in [4] is given as 0 (less than 50% disease control). Further, the “disease control rating AS” value in [5] is reported as 0 (less than 50% disease control). The “disease control rating VII” value in assay [6] is 0 (less than 50% disease control). In addition, the “disease control rating EGP” value in assay [7] is 0 (less than 50% disease control). The “disease control rating PIP” value in assay [8] is listed as 0 (less than 50% disease control). The “disease control rating PHI” value in [9] is given as 0 (less than 50% disease control). Besides, the “disease control rating EGT” value in assay [10] is 1 (about 50-80% disease control). For the same compound, in assay [11], the “disease control rating PVA” value was 0 (less than 50% disease control).
Turning to `Clc1ccc(CNC2COC3(CCCCC3)C2)cc1` (stereo not shown) [Compound 34], the “disease control rating PO” value in assay [1] is reported as 0 (less than 50% disease control). For the same compound, in assay [2], the “disease control rating RSI” value is on record as 0 (less than 50% disease control). The “disease control rating BCB” value in [3] was 0 (less than 50% disease control). The “disease control rating LN” value in [4] is given as 0 (less than 50% disease control). The “disease control rating AS” value in assay [5] is recorded as 0 (less than 50% disease control). Also, the “disease control rating VII” value in [6] is listed as 0 (less than 50% disease control). The “disease control rating EGP” value in assay [7] is 2 (greater than 80% disease control). Further, in assay [8], the “disease control rating PIP” value is 0 (less than 50% disease control). In addition, in assay [9], the “disease control rating PHI” value is 0 (less than 50% disease control). For the same compound, the “disease control rating EGT” value in assay [10] is on record as 2 (greater than 80% disease control). For the same compound, the “disease control rating PVA” value in [11] is 0 (less than 50% disease control).
